Where two headings read alike, the source gives them in different places.
Tests used:
COX-2 = molecular target: T1, COX-2 (Homo sapiens, UniProt P35354); assay: COX inhibitor screening assay, COX-2; type: biochemical
T1 construct: purchased
T1 sequence (P35354 18-604): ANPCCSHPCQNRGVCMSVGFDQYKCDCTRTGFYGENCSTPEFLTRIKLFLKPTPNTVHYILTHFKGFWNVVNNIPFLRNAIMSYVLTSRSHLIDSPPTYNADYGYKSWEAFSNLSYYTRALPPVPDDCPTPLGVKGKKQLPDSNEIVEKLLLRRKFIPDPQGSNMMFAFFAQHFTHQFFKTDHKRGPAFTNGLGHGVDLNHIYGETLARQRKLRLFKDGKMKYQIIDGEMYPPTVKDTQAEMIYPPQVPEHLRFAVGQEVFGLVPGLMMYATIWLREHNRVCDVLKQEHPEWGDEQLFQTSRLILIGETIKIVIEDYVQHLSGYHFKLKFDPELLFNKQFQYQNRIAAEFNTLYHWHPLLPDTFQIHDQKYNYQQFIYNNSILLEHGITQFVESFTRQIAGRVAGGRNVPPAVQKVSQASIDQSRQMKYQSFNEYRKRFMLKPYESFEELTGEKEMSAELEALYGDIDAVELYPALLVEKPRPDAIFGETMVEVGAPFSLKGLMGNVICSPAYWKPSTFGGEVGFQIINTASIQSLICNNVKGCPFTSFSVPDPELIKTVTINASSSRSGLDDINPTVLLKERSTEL
Method: The inhibitory effects of the drugs MMF and MPA on COX-1 and COX-2 were measured using the COX inhibitor screening assay kit and LOX inhibitor screening kit. […] Briefly, the reaction buffer (Tris–HCl buffer, pH 8.0) containing 5 mM EDTA, 2 mM phenol, and 1 µM hematin was measured into test tubes. The test drugs were dissolved in dimethyl sulfoxide and added to the tubes to final concentrations of […]. COX-1 or COX-2 was added to the test tubes and preincubated for 10 min at 37 °C. Arachidonic acid was then added, and the tubes were incubated for 2 min at 37 °C. The enzyme immunoassay was used to measure the concentration of the product prostaglandin F2α (PGF2α). The estimated values were determined after comparison to the predetermined standard curve. The IC50 was determined after three different experiments. The selectivity index was calculated from Eq. (1):
(1) Selectivity index=IC50COX−1/IC50COX−2

12-LOX = assay: LOX inhibitor screening kit; type: biochemical
Method: The inhibitory effects of the drugs MMF and MPA on COX-1 and COX-2 were measured using the COX inhibitor screening assay kit and LOX inhibitor screening kit. The assay was performed according to the manufacturer’s directions and previously described methods ([Chowdhury et al., 2008]; [Lee et al., 2004]). Briefly, the reaction buffer (Tris–HCl buffer, pH 8.0) containing 5 mM EDTA, 2 mM phenol, and 1 µM hematin was measured into test tubes. The test drugs were dissolved in dimethyl sulfoxide and added to the tubes to final concentrations of […]. COX-1 or COX-2 was added to the test tubes and preincubated for 10 min at 37 °C. Arachidonic acid was then added, and the tubes were incubated for 2 min at 37 °C. The enzyme immunoassay was used to measure the concentration of the product prostaglandin F2α (PGF2α). The estimated values were determined after comparison to the predetermined standard curve. The IC50 was determined after three different experiments. The selectivity index was calculated from Eq. (1): […]

IC50 (COX-2): 0.19 µM
IC50 (12-LOX; printed as 5-LOX in abstract and b38, read-out: IC50 5-LOX): 4.47 µM
IC50 (12-LOX; read-out: IC50 12-LOX): 4.47 µM
SMILES: COc1c(C)c2c(c(O)c1C/C=C(\C)CCC(=O)OCCN1CCOCC1)C(=O)OC2 [Mycophenolate mofetil]
